Assay results published in patent US7858349B2, “Anti-cancer compounds” (The Regents of the University of Colorado, priority 1999, dated 2010).
Read-outs that look alike come from different tables or passages of the source.

Columns and labels:
SCLC strain SHP-77 = test: MTT assay for cell survival, SCLC SHP-77 in vitro; format: cell-based, human; conditions: ED50 for killing of SCLC strain SHP-77 in vitro, 4 days, 0 = no detectable activity
A549 NSCLC cells = test: Inhibition of A-549 tumor growth in vivo in nude mice; design: species or system athymic nude mice; conditions: percent inhibition of tumor growth in nude mice; i.p. 5 mg/kg/every second day or 10 mg/kg/every fourth day
Method: (§1) Compounds having high in vitro cytotoxic activity were tested against implanted tumors in vivo. Athymic nude mice were implanted subcutaneously with suspensions (2 million SHP-77 SCLC cells, 1 million A549 NSCLC cells or 1.5 million PC3 PC cells) in Matrigel suspension. On the eighth day after tumor implantation groups of 5 mice bearing implants were injected intraperitoneally with the compounds being tested at 5 mg/kg/every second day or at 10 mg/kg/every fourth day; control animals were injected with an equal volume of isotonic saline. Less soluble compounds were initially dissolved in dimethyl sulfoxide (DMSO) and diluted with medium. In those cases the control injections contained the same concentration of DMSO. Tumor size was measured with a caliper three times per week. Tumor volume was calculated by the formula: Volume(cc)=3.14×(length)×(width)^2/6 At autopsy tumors were removed and weighed. Tumor inhibition was calculated on both weight and measurement basis. In each Table, an IC50 value of “0” represents no detectable anti-cancer activity for a drug in a given cell line and “Stim.” indicates the observation of a stimulatory activity on the growth of the cancer cell line.

PC3 PC cells = test: Inhibition of PC3 tumor growth in vivo in nude mice; design: species or system athymic nude mice; key to PC3 In vivo % inhib.: an IC50 value of “0” represents no detectable anti-cancer activity for a drug in a given cell line; “Stim.” indicates the observation of a stimulatory activity on the growth of the cancer cell line; conditions: for PC3 In vivo % inhib.: percent inhibition of tumor growth in nude mice, prostate cancer, i.p. 5 mg/kg/every second day or 10 mg/kg/every fourth day
How it was run: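 Athymic nude mice carrying subcutaneous Matrigel implants (2 million SHP-77, 1 million A549 or 1.5 million PC3 cells) received intraperitoneal compound from day 8, 5 mg/kg every second day or 10 mg/kg every fourth day, 5 mice/group, vehicle controls. Inhibition from caliper volume (3.14×L×W²/6, thrice weekly) and tumor weight at autopsy.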

NSCLC strain A-549 = test: MTT assay for cell survival, NSCLC A-549 in vitro; format: cell-based, human; conditions: ED50 for killing of NSCLC strain A-549 in vitro, 4 days
[1] = test system: cultured human cancer cell lines; test: MTT assay for cell survival, cell line not stated; format: cell-based; conditions: 4 days, read-out: concentration causing 50% cell death
SHP-77 SCLC cells = test: Inhibition of SHP-77 tumor growth in vivo in nude mice; design: species or system athymic nude mice; conditions: 5 mg/kg/every second day or 10 mg/kg/every fourth day
Method: as §1

implanted tumors = test: In vivo anti-cancer activity after oral administration; design: species or system nude mice

For CC1(C)CC(NC(=O)C(Cc2ccc(OCc3c(Cl)cccc3Cl)cc2)NC(=O)C(c2ccccc2)C2CCCCC2)CC(C)(C)N1 (single isomer, unassigned) [M-1124#1, Chpa-OC2Y-Atmp], which IC50 (SCLC strain SHP-77; read-out: SHP-77 In vitro IC50) is on record?
The IC50 was 1700 nM.

What about the “A-549 In vivo % inhib.” value (A549 NSCLC cells) of the same compound?
Its value is 50%.

And the “PC3 In vivo % inhib.” value (PC3 PC cells)?
Its value is “Stim”.

What does the source list for CCCCCCC(O)CC=CCCCCCCCC(=O)NC(Cc1ccc(OCc2c(Cl)cccc2Cl)cc1)C(=O)NC1CC(C)(C)NC(C)(C)C1 (centres unmarked) [Analog M-1128, Rio-OC2Y-Atmp]?
IC50 (SCLC strain SHP-77; read-out: SHP-77 In vitro IC50): 1600 nM; A-549 In vivo % inhib. (A549 NSCLC cells): 48%; PC3 In vivo % inhib. (PC3 PC cells): 44%

CC1(C)CC(NC(=O)C(Cc2ccc(-c3ccccc3)cc2)NC(=O)C=Cc2c(F)c(F)c(F)c(F)c2F)CC(C)(C)N1 (centres unmarked) [Analog M-1174, F5c-Bip-Atmp] was tested. Which IC50 (SCLC strain SHP-77; read-out: SHP-77 In vitro IC50) did it give?
The IC50 was 3700 nM.

And the “A-549 In vivo % inhib.” value (A549 NSCLC cells)?
Its value is 57%.

And the “PC3 In vivo % inhib.” value (PC3 PC cells)?
The value was 37%.

Which results are given for O=C(C=Cc1c(F)c(F)c(F)c(F)c1F)NC(Cc1ccc(I)cc1)C(=O)NC1CCN(Cc2ccccc2)CC1 (centres unmarked) [Analog M-1180, F5c-PIF-Abzp]?
IC50 (SCLC strain SHP-77; read-out: SHP-77 In vitro IC50): 3200 nM; A-549 In vivo % inhib. (A549 NSCLC cells): 23%; PC3 In vivo % inhib. (PC3 PC cells): 53%

Which results are given for O=C(NC(Cc1ccc2ccccc2c1)C(=O)N(Cc1ccccn1)Cc1ccccn1)C(c1ccc(Cl)cc1)c1ccc(Cl)cc1 (centres unmarked) [Analog M-1214, Bcpa-Nal-Dpic]?
IC50 (SCLC strain SHP-77; read-out: SHP-77 In vitro IC50): 7300 nM; A-549 In vivo % inhib. (A549 NSCLC cells): 24%; PC3 In vivo % inhib. (PC3 PC cells): 37%

For O=C(C=Cc1c(F)c(F)c(F)c(F)c1F)NC(Cc1ccc2ccccc2c1)C(=O)N1CCN(c2ccccn2)CC1 (centres unmarked) [Analog M-1216, F5c-Nal-Pypz], which IC50 (SCLC strain SHP-77; read-out: SHP-77 In vitro IC50) is on record?
Its IC50 is greater than 60000 nM.

And the “A-549 In vivo % inhib.” value (A549 NSCLC cells)?
Its value is 32%.

And the “PC3 In vivo % inhib.” value (PC3 PC cells)?
The value was 22%.

Which IC50 (SCLC strain SHP-77; read-out: SHP-77 In vitro IC50) does the source give for O=C(NC(Cc1ccc2ccccc2c1)C(=O)N1CCN(c2ccccn2)CC1)C(c1ccc(Cl)cc1)c1ccc(Cl)cc1 (centres unmarked) [Analog M-1242, Bcpa-Nal-Pypz] here?
The IC50 was greater than 60000 nM.

What about the “A-549 In vivo % inhib.” value (A549 NSCLC cells) of the same compound?
Its value is 19%.

What about the “PC3 In vivo % inhib.” value (PC3 PC cells) of the same compound?
The value was 36%.

For CC1(C)CC(NC(=O)C(Cc2ccc(OCc3c(Cl)cccc3Cl)cc2)NC(=O)CCCc2c[nH]c3ccccc23)CC(C)(C)N1 (centres unmarked) [Analog M-1364, 3Ibu-OC2Y-Atmp], which IC50 (SCLC strain SHP-77; read-out: SCLC SHP-77 IC50) is on record?
The IC50 was 7200 nM.

And the “A-549 In vivo % inhib.” value (A549 NSCLC cells)?
Its value is 50%.

And the “PC3 In vivo % inhib.” value (PC3 PC cells)?
The value was 9%.

CC1(C)CC(NC(=O)C(Cc2ccc(OCc3c(Cl)cccc3Cl)cc2)NC(=O)c2cnccn2)CC(C)(C)N1 (centres unmarked) [Analog M-1368, 2Pyz-OC2Y-Atmp] was tested. Which IC50 (SCLC strain SHP-77; read-out: SCLC SHP-77 IC50) did it give?
The IC50 was 3200 nM.

What about the “A-549 In vivo % inhib.” value (A549 NSCLC cells) of the same compound?
Its value is 47%.

What about the “PC3 In vivo % inhib.” value (PC3 PC cells) of the same compound?
The value was “Stim”.

For COc1ccc2c(c1)c(CC(=O)NC(Cc1ccc(OCc3c(Cl)cccc3Cl)cc1)C(=O)NC1CC(C)(C)NC(C)(C)C1)c(C)n2C(=O)c1ccc(Cl)cc1 (centres unmarked) [Analog M-1376, Indo-OC2Y-Atmp], which IC50 (SCLC strain SHP-77; read-out: SCLC SHP-77 IC50) is on record?
Its IC50 is 1500 nM.

What about the “A-549 In vivo % inhib.” value (A549 NSCLC cells) of the same compound?
Its value is 18%.

And the “PC3 In vivo % inhib.” value (PC3 PC cells)?
The value was 44%.

What about the IC50 (NSCLC strain A-549) of the same compound?
The IC50 was 1800 nM.

What does the source list for CC(=O)Oc1ccccc1C(=O)NC(Cc1ccc(OCc2c(Cl)cccc2Cl)cc1)C(=O)NC1CC(C)(C)NC(C)(C)C1 (centres unmarked) [Analog M-1378, Aspr-OC2Y-Atmp]?
IC50 (SCLC strain SHP-77; read-out: SCLC SHP-77 IC50): 2900 nM; A-549 In vivo % inhib. (A549 NSCLC cells): 9%; PC3 In vivo % inhib. (PC3 PC cells): Stim.; IC50 (NSCLC strain A-549): 3500 nM

Which IC50 (SCLC strain SHP-77; read-out: SCLC SHP-77 IC50) does the source give for CC1(C)CC(NC(=O)C(Cc2ccc(OCc3c(Cl)cccc3Cl)cc2)NC(=O)CCCc2ccc(N(CCCl)CCCl)cc2)CC(C)(C)N1 (centres unmarked) [Analog M-1384, Chl-OC2Y-Atmp] here?
The IC50 was 1800 nM.

And the “A-549 In vivo % inhib.” value (A549 NSCLC cells)?
Its value is 46%.

What about the “PC3 In vivo % inhib.” value (PC3 PC cells) of the same compound?
The value was “Stim”.

What about the IC50 (NSCLC strain A-549) of the same compound?
The IC50 was 1900 nM.

How did the IC50 (SCLC strain SHP-77; read-out: SCLC SHP-77 IC50) turn out when CC1(C)CC(NC(=O)C(Cc2ccc(OCc3c(Cl)cccc3Cl)cc2)NC(=O)C=Cc2cc(F)cc(F)c2F)CC(C)(C)N1 (centres unmarked) [Analog M-1388, F3c-OC2Y-Atmp] was run?
The IC50 was 1600 nM.

And the “A-549 In vivo % inhib.” value (A549 NSCLC cells)?
The value was 21%.

What about the “PC3 In vivo % inhib.” value (PC3 PC cells) of the same compound?
The value was “Stim”.

CC(C(=O)NC(Cc1ccc(OCc2c(Cl)cccc2Cl)cc1)C(=O)NC1CC(C)(C)NC(C)(C)C1)c1cccc(C(=O)c2ccccc2)c1 (centres unmarked) [Analog M-1392, Ktpf-OC2Y-Atmp] was tested. Which IC50 (SCLC strain SHP-77; read-out: SCLC SHP-77 IC50) did it give?
The IC50 was 2900 nM.

And the “A-549 In vivo % inhib.” value (A549 NSCLC cells)?
The value was 28%.

And the “PC3 In vivo % inhib.” value (PC3 PC cells)?
The value was 18%.

CC1(C)CC(NC(=O)C(Cc2ccc(OCc3c(Cl)cccc3Cl)cc2)NC(=O)C2CCn3c(C(=O)c4ccccc4)ccc32)CC(C)(C)N1 (centres unmarked) [Analog M-1394, Ktlc-OC2Y-Atmp] was tested. Which IC50 (SCLC strain SHP-77; read-out: SCLC SHP-77 IC50) did it give?
Its IC50 is 2900 nM.

What about the “A-549 In vivo % inhib.” value (A549 NSCLC cells) of the same compound?
The value was 68%.

What about the “PC3 In vivo % inhib.” value (PC3 PC cells) of the same compound?
The value was “Stim”.

What about the IC50 (NSCLC strain A-549) of the same compound?
The IC50 was 4900 nM.

For “Pentafluorocinnamoyl-O-(2,6-dichlorobenzyl)tyrosine-4-amino-2,2,6,6-tetramethylpiperidine [Analog M570, reference compound]”, which IC50 [1] is on record?
Its IC50 is 150 nM.

And the “inhibition of growth of the SCLC line SHP-77” value (SHP-77 SCLC cells)?
Its value is 85%.

And the “in vivo anti-cancer activity after oral administration” value (implanted tumors)?
Its value is “active”.

And the “inhibition of PC cell line PC3 tumors” value (PC3 PC cells; nude mice, 5 mg/kg/every second day or 10 mg/kg/every fourth day)?
Its value is 65%.
